The test concerns Plasma. Nature of the test: Antioxidant activity assessed as inhibition of LDL oxidation in human plasma. It counts as functional, cell-free.

Structures are written as SMILES.

One may read the IC50 as the point on the concentration scale where inhibition reaches its midpoint. For `C/C=C/c1ccc(O[C@@H](C)[C@@H](O)c2ccc(O)c(OC)c2)c(OC)c1` [MACHILIN D], the IC50 stood at 2900 nM. To `CC(C)(Sc1cc(C(C)(C)C)c(O)c(C(C)(C)C)c1)Sc1cc(C(C)(C)C)c(O)c(C(C)(C)C)c1` [PROBUCOL] belongs 1300 nM; to `C/C=C/c1ccc(O[C@@H](C)[C@@H](O)c2ccc(OC)c(OC)c2)c(OC)c1` [VIROLIN], 4300 nM.

Values taken from ChEMBL document CHEMBL1156394, “Low-density lipoprotein-antioxidant constituents of Saururus chinensis” (J Nat Prod, 2001).
